Measured values from patent US20230210867A1, “TREATMENT OF ADJUSTMENT DISORDERS” (VISTAGEN THERAPEUTICS, INC., priority 2020, published 2023).

Tests used:
[1] = test system: Adjustment Disorder with Anxiety (AjDA) symptoms in adults; assay: Phase 2A clinical trial of PH94B neuroactive nasal spray in Adjustment Disorder with Anxiety (AjDA); assay type: in vivo, human; conditions: adult subjects with AjDA, compared to placebo
Text: A clinical trial is designed and conducted to evaluate the efficacy, safety and tolerability of daily administration of PH94B neuroactive nasal spray (Example 1) as a treatment of Adjustment Disorder with Anxiety (AjDA) symptoms in adults, associated with identifiable stressors related to the COVID-19 pandemic. Subject are confirmed with current diagnoses of this condition as defined in the Diagnostic and Statistical Manual of Mental Disorders, 5th Edition (DSM-5).
The PH94B study drug is delivered intranasally with the nozzle of the applicator positioned in the nasal vestibule and directed toward the midline (medial part or nasal septum). In order to administer study medication, the actuator (pusher) should be depressed.
Prior to the use of a new study medication bottle, the subject is instructed to shake the bottle five times and to prime the bottle by depressing the actuator five times. […]
1. Individual subject improvement as assessed by the Sheehan Disability Scale (SDS) at the end of week 4 of treatment with PH94B compared to placebo.
2. Individual subject improvement as assessed by the Clinical Global Impression-Improvement rating (CGI-I). […]
3. Individual subject improvement as assessed by the subject's self-assessment of improvement (PGI-C) at the end of week 4 of treatment with PH94B compared to placebo. […]

[2] = all clinical studies to date; cited from earlier work
[3] = test system: symptoms of social anxiety disorder (SAD); conditions: earlier clinical studies; cited from earlier work

C[C@@]12C=CC[C@H]1[C@@H]1CCC3=C[C@@H](O)CC[C@]3(C)[C@H]1CC2 [PH94B, [3β]-androsta-4,16-dien-3-ol]
anxiety levels as measured by the Hamilton Anxiety Scale (HAM-A) ([1]; 3.2 μg intranasal four times per day, four weeks): statistically significant reduction in anxiety levels | secondary endpoints (SDS, CGI-I, PGI-C, ADNM) ([1]; end of week 4 of treatment): statistically significant improvement | safety in clinical studies [2]: safe | efficacy in treating symptoms of social anxiety disorder (SAD) [3]: significant efficacy
